The record followed here is ChEMBL document CHEMBL3804819, “2-(Quinolin-4-yloxy)acetamides Are Active against Drug-Susceptible and Drug-Resistant Mycobacterium tuberculosis Strains” (ACS Med Chem Lett, 2016).

Data set [1] deals with Mycobacterium tuberculosis. Kind of data set: Antibacterial activity against Mycobacterium tuberculosis H37Rv assessed as reduction in bacterial growth after 7 days by resazurin assay. The format is functional. Conditions: for MIC: 168 h. In general terms: The colour change of resazurin is a common sign of viable cells or microbes.
The next data set deals with Escherichia coli. Kind of data set: Antibacterial activity against Escherichia coli ATCC 25922 at 20 uM. The format is functional, organism-based.
For another data set, the system named is HaCaT. Kind of data set: Cytotoxicity against human HaCaT cells assessed as reduction in cell viability at 20 uM after 72 hrs by MTT assay. The format is cell-based.
In the next data set the test system is Pseudomonas aeruginosa. Kind of data set: Antibacterial activity against Pseudomonas aeruginosa ATCC 27853 at 20 uM. The format is functional, organism-based.
In the next data set the test system is Acinetobacter baumannii. In words: Antibacterial activity against Acinetobacter baumannii ATCC BAA 747 at 20 uM. The format is functional, organism-based.
For another data set, the system named is Staphylococcus aureus. Kind of data set: Antibacterial activity against Staphylococcus aureus ATCC 25923 at 20 uM. The format is functional, organism-based.
The next data set relates to Vero. In words: Cytotoxicity against African green monkey Vero cells assessed as reduction in cell viability at 20 uM after 72 hrs by MTT assay. Conditions: chlorocebus sabaeus. The format is cell-based. Background: Tetrazolium dyes change colour on reduction, which living cells bring about.
Another data set deals with RAW264.7. Kind of data set: Cytotoxicity against mouse RAW264.7 cells assessed as decrease in cell viability at 5 uM after 72 hrs by MTT assay. The format is cell-based. Conditions: raw264.7, 72 h.
For data set [2], the system named is Mycobacterium tuberculosis. In words: Antibacterial activity against Mycobacterium tuberculosis H37Rv infected in mouse RAW 264.7 cells assessed reduction in bacterial count per well at 5 uM after 3 days (reference value: 2.5 +/- 0.15 log10CFU). The format is functional.
Data set [3] has as its system Mycobacterium tuberculosis. Kind of data set: Antibacterial activity against Mycobacterium tuberculosis H37Rv ATCC 25618 assessed as reduction in bacterial growth after 6 days by resazurin assay. The format is functional. Conditions: H37Rv ATCC 25618, 144 h.
In another data set the test system is Liver. Kind of data set: Metabolic stability in human liver S9 fraction at 2 uM measured up to 30 mins by HPLC/MS/MS analysis. The format is ADME, subcellular. Conditions: s9, 0.5 h.
The nature of data set [4]: Thermodynamic solubility of the compound at pH 1.5 after 24 hrs by HPLC analysis. The format is physicochemical. The following applies: buffer, read-out: Therm_solubility.
The species named for data set [5] is Danio rerio. Kind of data set: Toxicity in zebrafish embryo assessed as reduction in heart rate at 1 uM measured at 72 hrs post fertilization by stereo microscopic analysis. The format is organism-based. The following applies: in vivo.
For data set [6], the species on record is Danio rerio. In words: Toxicity in zebrafish embryo assessed as reduction in heart rate at 5 uM measured at 72 hrs post fertilization by stereo microscopic analysis. The format is organism-based. The following applies: in vivo.
The species entered for data set [7] is Danio rerio. Kind of data set: Toxicity in zebrafish embryo assessed as reduction in heart rate at 20 uM measured at 72 hrs post fertilization by stereo microscopic analysis. Conditions: in vivo. The format is organism-based.
A short description of data set [8]: Inhibition CYP450 in human liver microsomes by HPLC/MS/MS analysis in presence of NADPH. The format is ADME. Background: Liver microsomes are vesicles of endoplasmic reticulum, rich in cytochrome P450 enzymes.
Data set [9] is described as follows: Thermodynamic solubility of the compound at pH 7.4 after 24 hrs by HPLC analysis. The format is physicochemical. Conditions: buffer, read-out: Therm_solubility.

Converted amounts (≈) assume the structure as drawn. The source made the active and inactive calls. No cut-off for these calls is given here.

On to `COc1cccc(NC(=O)COc2cc(C)nc3ccc(OC)cc23)c1`, for which the MIC in data set [1] worked out at 0.88 µM (≈ 0.31 µg/mL). Moreover, the result in the data set with Escherichia coli, in the data set on Pseudomonas aeruginosa, in the data set on Acinetobacter baumannii and with Staphylococcus aureus was inactive. Further, the Activity entry in the data set with HaCaT and in the data set on Vero was “Non-toxic” throughout.

Turning to `NNC(=O)c1ccncc1` [ISONIAZID], the MIC in data set [1] amounted to 1.46 µM (≈ 0.2 µg/mL).

Turning to `COc1ccc2nc(C)cc(OCC(=O)Nc3cccc(Cl)c3)c2c1`, the Activity entry is “Non-toxic” with RAW264.7, 2.12 log10CFU in data set [2], “Non-toxic” with HaCaT and “Non-toxic” in the data set with Vero. Moreover, in data set [1], the MIC was found to be 0.44 µM (≈ 0.157 µg/mL). The result in the data set with Escherichia coli, in the data set with Pseudomonas aeruginosa, with Acinetobacter baumannii and with Staphylococcus aureus was inactive.

`COc1ccc2nc(C)cc(OCC(=O)Nc3ccccc3OC)c2c1`: the Activity entry with RAW264.7 is listed as “Non-toxic”; in data set [2], 1.61 log10CFU; with HaCaT, “Non-toxic”; with Vero, “Non-toxic”. The MIC in data set [1] stood at 0.44 µM (≈ 0.155 µg/mL); in data set [3], 0.7 µM (≈ 0.247 µg/mL). Besides, the result with Escherichia coli, with Pseudomonas aeruginosa, in the data set with Acinetobacter baumannii and in the data set with Staphylococcus aureus was inactive.

Regarding `COc1ccc2nc(C)cc(OCC(=O)Nc3cccc4ccccc34)c2c1`, the MIC in data set [1] is 0.21 µM (≈ 0.0782 µg/mL).

For `COc1ccc2nc(C)cc(OCC(=O)Nc3ccccc3Cl)c2c1`, the Activity entry in the data set with RAW264.7 is reported as “Non-toxic”; in data set [2], 1.75 log10CFU; with HaCaT it was “Non-toxic”; in the data set on Vero, “Non-toxic”. In addition, the minimum inhibitory concentration (MIC) in [1] stood at 0.44 µM (≈ 0.157 µg/mL). For the same compound, the outcome in the data set on Escherichia coli, with Pseudomonas aeruginosa, with Acinetobacter baumannii and in the data set with Staphylococcus aureus was inactive.

Consider `COc1ccc2nc(C)cc(OCC(=O)Nc3ccc4c(c3)OCO4)c2c1`, for which the Activity result in the data set on RAW264.7 is listed as “Non-toxic”; in data set [2], 1.77 log10CFU; with HaCaT, “Non-toxic”; in the data set with Vero, “Non-toxic”. In addition, the minimal inhibitory concentration (MIC) in data set [1] was determined as 0.42 µM (≈ 0.154 µg/mL). Also, the outcome in the data set on Escherichia coli, with Pseudomonas aeruginosa, in the data set on Acinetobacter baumannii and in the data set on Staphylococcus aureus was inactive.

Consider `COc1ccc2nc(C)cc(OCC(=O)Nc3ccc(Cl)cc3)c2c1`, for which the Activity entry is “Non-toxic” with RAW264.7, 1.73 log10CFU in data set [2], “Non-toxic” with HaCaT and “Non-toxic” with Vero. Also, the MIC in data set [1] turned out to be 0.44 µM (≈ 0.157 µg/mL). Besides, the outcome in the data set with Escherichia coli, in the data set with Pseudomonas aeruginosa, in the data set with Acinetobacter baumannii and in the data set on Staphylococcus aureus was inactive.

Turning to `COc1ccc2nc(C)cc(OCC(=O)Nc3ccc(Br)cc3)c2c1`, the Activity entry in the data set on RAW264.7 is on record as “Non-toxic”; in the data set filed under Danio rerio [5], “Non-toxic”; in data set [2] it was 1.87 log10CFU; in the data set filed under Danio rerio [6] it was “Non-toxic”; in the data set listed under Danio rerio [7], “Toxic”; in the data set with HaCaT it was “Non-toxic”. The Activity entry in the data set with Vero is reported as “Non-toxic”. The Stability entry in the data set with Liver is “Stable”. Also, the values for the solubility thermodynamic at 24 h in data set [4] and in data set [9] were 30 µM (≈ 12 µg/mL) and below 4.4 µM, respectively. The MIC in data set [1] worked out at 0.1 µM (≈ 0.0401 µg/mL). Besides, the outcome in the data set with Escherichia coli, in the data set with Pseudomonas aeruginosa, in the data set with Acinetobacter baumannii and with Staphylococcus aureus was inactive. The IC50 in data set [8] is below 10 µM.

As to `COc1ccc2nc(C)cc(OCC(=O)Nc3ccc(N)cc3)c2c1`, in data set [1], the MIC is 7.39 µM (≈ 2.49 µg/mL).

Consider `COc1ccccc1NC(=O)COc1cc(C)nc2ccccc12`, for which, in data set [1], the MIC was above 29 µM.

On to `COc1ccc2nc(C)cc(OCC(=O)Nc3ccc(C(F)(F)F)cc3)c2c1`, for which the Activity entry in the data set on RAW264.7 is given as “Non-toxic”; in data set [2] it was 1.89 log10CFU; in the data set with HaCaT it was “Non-toxic”; in the data set on Vero, “Non-toxic”. For the same compound, the MIC in data set [1] came to 0.8 µM (≈ 0.312 µg/mL). In addition, the outcome with Escherichia coli, with Pseudomonas aeruginosa, in the data set on Acinetobacter baumannii and in the data set on Staphylococcus aureus was inactive.

As to `CCc1cccc(C)c1NC(=O)COc1cc(C)nc2ccc(OC)cc12`, the minimal inhibitory concentration (MIC) in data set [1] was above 27 µM.

Regarding `COc1ccc(NC(=O)COc2cc(C)nc3ccc(OC)cc23)cc1`, the MIC in data set [1] is 0.44 µM (≈ 0.155 µg/mL). For the same compound, the result in the data set with Escherichia coli, with Pseudomonas aeruginosa, in the data set on Acinetobacter baumannii and with Staphylococcus aureus was inactive. Moreover, the Activity result in the data set on HaCaT and in the data set with Vero was “Non-toxic” throughout.

On to `COc1ccc2nc(C)cc(OCC(=O)Nc3ccccc3[N+](=O)[O-])c2c1`, for which the minimal inhibitory concentration (MIC) in data set [1] is 6.79 µM (≈ 2.49 µg/mL).

`CO[C@H]1/C=C/O[C@@]2(C)Oc3c(C)c(O)c4c(O)c(c(/C=N/N5CCN(C)CC5)c(O)c4c3C2=O)NC(=O)/C(C)=C\C=C\[C@H](C)[C@H](O)[C@@H](C)[C@@H](O)[C@@H](C)[C@H](OC(C)=O)[C@@H]1C` [RIFAMPIN] came in with an Activity in data set [2] of 1.58 log10CFU.

As for `COc1ccc2nc(C)cc(OCC(=O)Nc3cccc(C(F)(F)F)c3)c2c1`, the minimum inhibitory concentration (MIC) in [1] is 6.39 µM (≈ 2.49 µg/mL).

Consider `COc1ccc(NC(=O)COc2cc(C)nc3ccc(OC)cc23)c(OC)c1`, for which the Activity entry with RAW264.7 is recorded as “Non-toxic”; in the data set listed under Danio rerio [5], “Non-toxic”; in data set [2], 1.61 log10CFU; in the data set filed under Danio rerio [6], “Non-toxic”; in the data set listed under Danio rerio [7], “Toxic”; in the data set with HaCaT, “Non-toxic”. Further, the Activity result in the data set with Vero is given as “Non-toxic”. In addition, the Stability entry with Liver was “Stable”. In addition, the solubility thermodynamic at 24 h is 30 µM (≈ 11.5 µg/mL) in data set [4] and below 4.4 µM in data set [9]. In addition, the minimal inhibitory concentration (MIC) in [1] turned out to be 0.15 µM (≈ 0.0574 µg/mL). Moreover, the result in the data set with Escherichia coli, with Pseudomonas aeruginosa, with Acinetobacter baumannii and in the data set on Staphylococcus aureus was inactive. The IC50 in data set [8] is below 10 µM.

As for `COc1ccc2nc(C)cc(OCC(=O)Nc3ccccc3)c2c1`, the minimum inhibitory concentration (MIC) in [1] is 0.48 µM (≈ 0.155 µg/mL). For the same compound, the outcome with Escherichia coli, with Pseudomonas aeruginosa, in the data set on Acinetobacter baumannii and in the data set on Staphylococcus aureus was inactive. The Activity result with HaCaT and in the data set with Vero was “Non-toxic” throughout.

Turning to `COc1ccc2c(c1)c(=O)ccn2CC(=O)Nc1ccccc1OC`, the MIC in [1] was above 31 µM.

As to `COc1ccc2nc(C)cc(OCC(=O)NCc3ccccc3)c2c1`, the Activity entry is “Non-toxic” in the data set with RAW264.7, 1.71 log10CFU in data set [2], “Non-toxic” in the data set with HaCaT and “Non-toxic” with Vero. In addition, in data set [1], the minimum inhibitory concentration (MIC) came to 1.85 µM (≈ 0.622 µg/mL). Further, the result in the data set with Escherichia coli, with Pseudomonas aeruginosa, in the data set with Acinetobacter baumannii and in the data set with Staphylococcus aureus was inactive.

For the compound `COc1ccc2nc(C)cc(OCC(=O)Nc3ccccc3C)c2c1`, the Activity result in the data set on RAW264.7 is recorded as “Non-toxic”; in data set [2], 2.09 log10CFU; with HaCaT it was “Non-toxic”; with Vero it was “Non-toxic”. Besides, the minimal inhibitory concentration (MIC) in data set [1] is 0.46 µM (≈ 0.155 µg/mL). In addition, the result in the data set on Escherichia coli, in the data set on Pseudomonas aeruginosa, with Acinetobacter baumannii and with Staphylococcus aureus was inactive.

Regarding `COc1ccc2nc(C)cc(O)c2c1`, the outcome in data set [1] was inactive.

As for `COc1ccc2nc(C)cc(OCC(=O)Nc3ccc([N+](=O)[O-])cc3)c2c1`, the minimal inhibitory concentration (MIC) in [1] is 6.79 µM (≈ 2.49 µg/mL).

One may read the MIC as the least concentration at which growth counts as inhibited. Usually IC50 stands for the concentration that gives 50% inhibition.
